The results in this text go back to the NIST ThermoML archive (doi:10.1016/j.jct.2008.09.012).

Each structure is given as a SMILES string. ± gives the expanded uncertainty stated by the source.

This series is described as follows: molar enthalpy of vaporization or sublimation. As to conditions: 298.15 K; Liquid; Calvet microcalorimetry.

For the compound `COc1ccc(F)cc1` [1-fluoro-4-methoxybenzene], the molar enthalpy came out at 11.6 ± 0.526 kcal/mol.
Turning to `COc1cccc(F)c1` [3-fluoroanisole], the molar enthalpy was 11.5 ± 0.526 kcal/mol.
Regarding `COc1ccccc1F` [2-fluoroanisole], the molar enthalpy is 12.5 ± 0.526 kcal/mol.
